Read-outs that look alike come from different tables or passages of the source.
How the values were obtained:
EGFR L858R/T790M = biological target: T1, EGFR L858R/T790M (Homo sapiens, UniProt P00533, L858R/T790M); assay: Inhibition of EGFR L858R/T790M biochemical enzymatic activity (HTRF); conditions: 1 mM ATP
T1 construct: purchased Carna Bio
Procedure, shortened: (§1)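 Recombinant kinases phosphorylated 1 μM biotinylated TK substrate with 1 mM ATP in buffer with 5 mM MgCl2, 1 mM MnCl2, 0.01% CHAPS, 1 mM DTT, 0.5% DMSO. Reaction ran 1 h at room temperature, stopped with EDTA-containing detection mix. HTRF 665/615 nm ratio gave IC50 via four-parameter logistic fit.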

EGFR L858R = biological target: T2, EGFR L858R (Homo sapiens, UniProt P00533, L858R); assay: Inhibition of EGFR L858R biochemical enzymatic activity (HTRF); conditions: 1 mM ATP
T2 construct: purchased Carna Bio
Procedure, shortened: as §1

A-431 = assay: Cell proliferation assay, A-431 cells (GI50, Table 6); assay type: cell-based
PC-9 = assay: Cell proliferation assay, PC-9 cells (CellTiter-Glo, 72 hours); assay type: cell-based; conditions: PC9 cells, read-out: GI50 PC9
Procedure, shortened: (§2)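 Ba/F3 cells carrying EGFR mutants (5000/well) or PC-9 cells (500/well) in RPMI1640 were dosed with compound series after overnight attachment and grown 72 h. Viability read by CellTiter-Glo, with day-0 counts subtracted; GI50 from curve fits of % proliferation versus DMSO control.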

EGFR Exon19Del = biological target: T3, EGFR Exon19Del (Homo sapiens, UniProt P00533, DEL746-750); assay: Inhibition of EGFR Exon19Del biochemical enzymatic activity (HTRF); conditions: read-out: IC50 @Del19
T3 construct: purchased Carna Bio
Procedure, shortened: as §1

[1] = tested on: Ba/F3 cells expressing EGFR mutations; assay: Cell proliferation assay, Ba/F3 cells expressing EGFR mutations (CellTiter-Glo, 72 hours); assay type: cell-based
Procedure, shortened: as §2

EGFR Exon19Del/T790M = biological target: T4, EGFR Exon19Del/T790M (Homo sapiens, UniProt P00533, DEL746-750/T790M); assay: Inhibition of EGFR Exon19Del/T790M biochemical enzymatic activity (HTRF); conditions: 1 mM ATP
T4 construct: purchased Carna Bio
Procedure, shortened: as §1

EGFR[T790M/C797S/L858R] = biological target: T5, EGFR[T790M/C797S/L858R] (Homo sapiens, UniProt P00533, C797S/L858R/T790M); assay: Inhibition of EGFR[T790M/C797S/L858R] biochemical enzymatic activity (HTRF); conditions: 1 mM ATP
T5 construct: purchased Carna Bio
Procedure, shortened: as §1

EGFR wild type = biological target: T6, EGFR wild type (Homo sapiens, UniProt P00533); assay: Inhibition of EGFR wild type biochemical enzymatic activity (HTRF); conditions: 1 mM ATP
T6 construct: purchased Carna Bio
Procedure, shortened: as §1

EGFR (C797S L858R) = biological target: T7, EGFR (C797S L858R) (Homo sapiens, UniProt P00533, C797S/L858R); assay: Inhibition of EGFR (C797S L858R) biochemical enzymatic activity (HTRF); conditions: 1 mM ATP
T7 construct: purchased signalchem
Procedure, shortened: as §1

EGFR (d746-750 C797S) = biological target: T8, EGFR (d746-750 C797S) (Homo sapiens, UniProt P00533, C797S/DEL746-750); assay: Inhibition of EGFR (d746-750 C797S) biochemical enzymatic activity (HTRF); conditions: 1 mM ATP
T8 construct: purchased signalchem
Procedure, shortened: as §1

[2] = biological target: T9, EGFR[T790M/C797S/d746-750] (Homo sapiens, UniProt P00533, C797S/DEL746-750/T790M); assay: Inhibition of EGFR[T790M/C797S/d746-750] biochemical enzymatic activity (HTRF)
T9 construct: purchased Carna Bio
Procedure, shortened: as §1

[3] = EGFR L858R/T790M, 1 h at room temperature, read-out: IC50 @L858R-T790M
[4] = 1 h at room temperature, read-out: IC50 @L858R
[5] = EGFR Exon19Del, 1 mM ATP, 1 h at room temperature
[6] = EGFR Exon19Del/T790M, 1 h at room temperature, read-out: IC50 @Del19-T790M
[7] = EGFR[T790M/C797S/L858R], 1 h at room temperature, read-out: IC50 @T790M- C797S - L858R
[8] = EGFR wild type, 1 h at room temperature, read-out: IC50 @WT
[9] = EGFR (C797S L858R), 1 h at room temperature, read-out: IC50 @L858-C797S
[10] = EGFR (d746-750 C797S), 1 h at room temperature, read-out: IC50 @Del19-C797S
[11] = EGFR[T790M/C797S/d746-750], 1 mM ATP, 1 h at room temperature, read-out: IC50 @T790M - C797S - Del19
[12] = EGFR L858R-T790M, 1 h, room temperature, read-out: IC50 (nM) @L858R-T790M
[13] = 1 h, room temperature, read-out: IC50 (nM) @L858R
[14] = Homo sapiens, A-431, A-431 cells
[15] = EGFR Del19, 1 mM ATP, 1 h, room temperature
[16] = Mus musculus, BaF3, 72 h, BaF3 cells, EGFR DEL19 - C797S, read-out: GI50 DEL19 - C797S/BaF3
[17] = Mus musculus, BaF3, 72 h, BaF3 cells, EGFR DEL19 - T790-C797S, read-out: GI50 DEL19 - T790-C797S/BaF3
[18] = Mus musculus, BaF3, 72 h, BaF3 cells, EGFR L858R - C797S, read-out: GI50 L858R - C797S/BaF3
[19] = Mus musculus, BaF3, 72 h, BaF3 cells, EGFR L858R - T790-C797S, read-out: GI50 L858R - T790-C797S/BaF3
[20] = Mus musculus, BaF3, 72 h, BaF3 cells, EGFR L858R - T790M, read-out: GI50 L858R - T790M/BaF3
[21] = Mus musculus, BaF3, 72 h, BaF3 cells, EGFR L858R, read-out: GI50 L858R/BaF3
[22] = Mus musculus, BaF3, 72 h, EGFR DEL19 - T790M, read-out: GI50 DEL19 - T790M
[23] = EGFR Del19-T790M, 1 h, room temperature, read-out: IC50 (nM) @Del19-T790M
[24] = EGFR T790M-C797S-L858R, 1 h, room temperature, read-out: IC50 (nM) @T790M- C797S - L858R
[25] = EGFR WT, 1 h, room temperature, read-out: IC50 (nM) @WT
[26] = EGFR L858-C797S, 1 h, room temperature, read-out: IC50 (nM) @L858-C797S
[27] = EGFR Del19-C797S, 1 h, room temperature, read-out: IC50 (nM) @Del19-C797S
[28] = EGFR T790M-C797S-Del19, 1 mM ATP, 1 h, room temperature, read-out: IC50 (nM) @T790M - C797S - Del19

T6 sequence (P00533 25-1210): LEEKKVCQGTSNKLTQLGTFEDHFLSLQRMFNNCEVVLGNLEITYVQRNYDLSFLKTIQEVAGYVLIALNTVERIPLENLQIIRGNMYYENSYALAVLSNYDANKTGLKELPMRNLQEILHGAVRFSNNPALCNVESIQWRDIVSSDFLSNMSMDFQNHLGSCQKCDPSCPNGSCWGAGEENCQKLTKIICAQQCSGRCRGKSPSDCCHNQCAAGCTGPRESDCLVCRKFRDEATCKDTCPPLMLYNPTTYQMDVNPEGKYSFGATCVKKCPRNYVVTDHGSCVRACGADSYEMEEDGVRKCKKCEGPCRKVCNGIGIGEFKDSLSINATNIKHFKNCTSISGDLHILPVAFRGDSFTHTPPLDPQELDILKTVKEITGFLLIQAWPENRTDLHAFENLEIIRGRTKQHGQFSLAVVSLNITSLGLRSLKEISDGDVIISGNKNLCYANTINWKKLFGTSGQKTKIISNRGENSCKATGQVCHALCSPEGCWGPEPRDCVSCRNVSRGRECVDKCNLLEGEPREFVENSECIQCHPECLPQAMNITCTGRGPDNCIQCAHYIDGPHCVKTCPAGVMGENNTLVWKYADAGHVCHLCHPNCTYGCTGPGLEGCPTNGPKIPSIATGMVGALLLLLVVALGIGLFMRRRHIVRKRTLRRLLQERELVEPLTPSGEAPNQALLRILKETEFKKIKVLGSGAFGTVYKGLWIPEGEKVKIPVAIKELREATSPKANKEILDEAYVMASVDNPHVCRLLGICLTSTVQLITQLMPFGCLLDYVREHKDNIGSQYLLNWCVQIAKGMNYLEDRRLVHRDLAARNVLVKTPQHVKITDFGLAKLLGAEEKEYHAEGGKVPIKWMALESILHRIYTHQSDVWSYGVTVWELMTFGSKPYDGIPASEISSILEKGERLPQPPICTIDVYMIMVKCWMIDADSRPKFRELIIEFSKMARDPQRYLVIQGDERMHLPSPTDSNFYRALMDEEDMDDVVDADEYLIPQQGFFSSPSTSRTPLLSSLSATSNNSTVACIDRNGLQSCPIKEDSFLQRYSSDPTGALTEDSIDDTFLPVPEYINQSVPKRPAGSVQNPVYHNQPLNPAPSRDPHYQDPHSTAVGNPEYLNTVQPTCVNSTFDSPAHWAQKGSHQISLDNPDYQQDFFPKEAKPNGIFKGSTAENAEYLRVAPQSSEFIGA
T2 sequence (P00533 25-1210 L858R): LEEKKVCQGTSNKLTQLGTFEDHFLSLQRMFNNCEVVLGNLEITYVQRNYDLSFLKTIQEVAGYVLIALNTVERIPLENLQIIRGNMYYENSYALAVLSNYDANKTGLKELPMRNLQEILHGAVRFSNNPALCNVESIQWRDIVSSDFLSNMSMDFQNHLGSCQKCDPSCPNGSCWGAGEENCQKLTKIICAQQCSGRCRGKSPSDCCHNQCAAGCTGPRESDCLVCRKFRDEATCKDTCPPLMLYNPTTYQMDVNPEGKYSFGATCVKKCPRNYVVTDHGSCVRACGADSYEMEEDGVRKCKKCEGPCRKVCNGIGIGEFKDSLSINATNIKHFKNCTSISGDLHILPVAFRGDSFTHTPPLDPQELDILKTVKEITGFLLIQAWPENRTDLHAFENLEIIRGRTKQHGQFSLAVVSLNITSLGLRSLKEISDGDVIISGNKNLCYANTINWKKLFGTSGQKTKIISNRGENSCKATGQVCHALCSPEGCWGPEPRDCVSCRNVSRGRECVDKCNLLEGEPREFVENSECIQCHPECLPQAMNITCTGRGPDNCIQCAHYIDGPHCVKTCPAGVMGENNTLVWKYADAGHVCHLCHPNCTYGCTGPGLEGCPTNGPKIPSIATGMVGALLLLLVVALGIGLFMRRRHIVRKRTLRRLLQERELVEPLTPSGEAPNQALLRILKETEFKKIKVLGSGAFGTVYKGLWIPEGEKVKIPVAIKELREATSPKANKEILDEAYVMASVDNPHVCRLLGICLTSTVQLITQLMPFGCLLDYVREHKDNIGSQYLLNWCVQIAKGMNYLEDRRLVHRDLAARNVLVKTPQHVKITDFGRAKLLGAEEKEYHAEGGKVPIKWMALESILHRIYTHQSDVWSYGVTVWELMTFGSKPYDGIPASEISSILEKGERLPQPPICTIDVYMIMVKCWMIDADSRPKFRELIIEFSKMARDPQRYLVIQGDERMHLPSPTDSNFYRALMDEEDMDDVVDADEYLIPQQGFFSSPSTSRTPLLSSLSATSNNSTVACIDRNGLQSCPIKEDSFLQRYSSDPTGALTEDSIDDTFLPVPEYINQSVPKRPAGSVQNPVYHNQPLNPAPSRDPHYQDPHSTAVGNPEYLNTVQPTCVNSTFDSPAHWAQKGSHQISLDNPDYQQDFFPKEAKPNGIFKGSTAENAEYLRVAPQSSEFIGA
T3 sequence (P00533 with tags, fused parts or gaps DEL746-750 limits assumed): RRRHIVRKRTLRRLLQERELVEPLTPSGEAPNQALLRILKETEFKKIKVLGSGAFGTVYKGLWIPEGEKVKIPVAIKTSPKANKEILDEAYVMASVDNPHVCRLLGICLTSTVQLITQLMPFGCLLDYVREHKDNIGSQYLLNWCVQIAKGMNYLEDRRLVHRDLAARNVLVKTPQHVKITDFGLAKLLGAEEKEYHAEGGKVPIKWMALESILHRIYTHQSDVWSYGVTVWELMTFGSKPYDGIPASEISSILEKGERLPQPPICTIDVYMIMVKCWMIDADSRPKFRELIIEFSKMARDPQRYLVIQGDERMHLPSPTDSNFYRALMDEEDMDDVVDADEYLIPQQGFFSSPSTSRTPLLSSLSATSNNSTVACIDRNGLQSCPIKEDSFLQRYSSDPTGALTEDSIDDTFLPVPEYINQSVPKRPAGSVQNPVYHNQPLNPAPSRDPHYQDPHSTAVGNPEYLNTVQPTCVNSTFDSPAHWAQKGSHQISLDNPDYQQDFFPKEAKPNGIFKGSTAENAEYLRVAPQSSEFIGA
T8 sequence (P00533 with tags, fused parts or gaps DEL746-750/C797S limits assumed): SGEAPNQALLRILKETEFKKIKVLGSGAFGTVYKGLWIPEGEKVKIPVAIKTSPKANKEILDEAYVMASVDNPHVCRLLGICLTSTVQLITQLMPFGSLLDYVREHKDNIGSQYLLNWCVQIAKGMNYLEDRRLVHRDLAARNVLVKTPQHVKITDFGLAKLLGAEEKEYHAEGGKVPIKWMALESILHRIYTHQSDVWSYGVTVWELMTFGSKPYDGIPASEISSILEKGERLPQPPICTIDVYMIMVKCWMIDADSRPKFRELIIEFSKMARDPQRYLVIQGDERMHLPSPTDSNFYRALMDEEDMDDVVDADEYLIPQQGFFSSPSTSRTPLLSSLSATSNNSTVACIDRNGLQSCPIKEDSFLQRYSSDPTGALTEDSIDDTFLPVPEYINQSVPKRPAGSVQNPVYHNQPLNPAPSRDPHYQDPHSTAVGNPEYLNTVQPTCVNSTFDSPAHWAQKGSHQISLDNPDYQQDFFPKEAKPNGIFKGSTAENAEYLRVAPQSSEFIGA
T9 sequence (P00533 with tags, fused parts or gaps DEL746-750/T790M/C797S limits assumed): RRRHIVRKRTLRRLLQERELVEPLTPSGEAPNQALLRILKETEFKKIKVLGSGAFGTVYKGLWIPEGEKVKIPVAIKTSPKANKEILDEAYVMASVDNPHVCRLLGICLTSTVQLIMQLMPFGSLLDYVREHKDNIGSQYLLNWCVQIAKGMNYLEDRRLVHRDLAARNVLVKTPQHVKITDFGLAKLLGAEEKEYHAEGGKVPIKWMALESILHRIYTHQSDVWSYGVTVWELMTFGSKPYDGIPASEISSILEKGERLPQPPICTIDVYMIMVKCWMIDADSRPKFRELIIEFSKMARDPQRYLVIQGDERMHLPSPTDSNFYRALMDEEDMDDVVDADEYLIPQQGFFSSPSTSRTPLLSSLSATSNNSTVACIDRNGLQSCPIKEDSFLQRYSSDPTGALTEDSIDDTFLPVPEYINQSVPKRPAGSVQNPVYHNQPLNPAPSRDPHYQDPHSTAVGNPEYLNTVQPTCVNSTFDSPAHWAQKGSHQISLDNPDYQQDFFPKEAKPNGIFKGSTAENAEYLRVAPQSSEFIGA
T4 sequence (P00533 with tags, fused parts or gaps DEL746-750/T790M limits assumed): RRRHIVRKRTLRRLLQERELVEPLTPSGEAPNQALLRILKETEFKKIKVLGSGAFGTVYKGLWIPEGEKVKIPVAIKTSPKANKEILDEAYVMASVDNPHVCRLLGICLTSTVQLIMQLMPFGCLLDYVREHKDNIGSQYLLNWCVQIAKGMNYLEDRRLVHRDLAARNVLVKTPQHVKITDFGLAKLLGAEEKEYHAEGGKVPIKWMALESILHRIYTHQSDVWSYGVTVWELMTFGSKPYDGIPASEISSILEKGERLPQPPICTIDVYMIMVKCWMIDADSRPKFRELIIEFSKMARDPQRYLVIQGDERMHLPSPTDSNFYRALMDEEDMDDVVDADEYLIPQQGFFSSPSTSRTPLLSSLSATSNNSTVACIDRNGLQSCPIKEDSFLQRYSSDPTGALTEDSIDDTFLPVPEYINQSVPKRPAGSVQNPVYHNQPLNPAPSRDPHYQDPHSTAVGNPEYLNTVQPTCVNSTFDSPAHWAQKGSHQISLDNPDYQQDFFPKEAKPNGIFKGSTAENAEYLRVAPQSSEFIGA

Compound | IC50 (EGFR L858R/T790M; [3]) [nM] | IC50 (EGFR L858R; [4]) [nM] | IC50 (EGFR L858R/T790M; [12]) [nM] | IC50 (EGFR L858R; [13]) [nM] | GI50 (A-431; [14]) [nM] | GI50 (PC-9; Homo sapiens, PC-9, 72 h) [nM] | IC50 (EGFR Exon19Del; [15]) [nM] | GI50 [1, 16] [nM] | GI50 [1, 17] [nM] | GI50 [1, 18] [nM] | GI50 [1, 19] [nM] | GI50 [1, 20] [nM] | GI50 [1, 21] [nM] | GI50 [1, 22] [nM] | IC50 (EGFR Exon19Del/T790M; [23]) [nM] | IC50 (EGFR[T790M/C797S/L858R]; [24]) [nM] | IC50 (EGFR wild type; [25]) [nM] | IC50 (EGFR (C797S L858R); [26]) [nM] | IC50 (EGFR (d746-750 C797S); [27]) [nM] | IC50 [2, 28] [nM] | further results
Cc1cc2cc(n1)-c1cnn(C)c1OCCN1CC3CCC(C3)(C1)n1c(nc3ccc(N4CCOCC4)cc31)NC2=O (single isomer, unassigned) [Example B10B, 15,21-Dimethyl-5-(morpholin-4-yl)-23-oxa-2,9,11,16,20,21,26-heptaazaheptacyclo[24.4.1.1^{1,28}.1^{13,17}.0^{2,10}.0^{3,8}.0^{18,22}]tritriaconta-3,5,7,9,13,15,17(33),18(22),19-nonaen-12-one] | > 5000 | > 5000 |  |  |  |  |  |  |  |  |  |  |  |  |  |  |  |  |  |  | GI50 (A-431; A-431 cells): 5520 nM; GI50 (PC-9): 2620 nM; IC50 (EGFR Exon19Del; [5]): 1080 nM; GI50 ([1]; BaF3 cells, EGFR DEL19 - C797S, read-out: GI50 DEL19 - C797S/BaF3): 403 nM; GI50 ([1]; BaF3 cells, EGFR DEL19 - T790-C797S, read-out: GI50 DEL19 - T790-C797S/BaF3): 516 nM; GI50 ([1]; BaF3 cells, EGFR L858R - C797S, read-out: GI50 L858R - C797S/BaF3): 1580 nM; GI50 ([1]; BaF3 cells, EGFR L858R - T790-C797S, read-out: GI50 L858R - T790-C797S/BaF3): 595 nM; GI50 ([1]; BaF3 cells, EGFR L858R - T790M, read-out: GI50 L858R - T790M/BaF3): 539 nM; GI50 ([1]; BaF3 cells, EGFR L858R, read-out: GI50 L858R/BaF3): 2910 nM; GI50 ([1]; EGFR DEL19 - T790M, read-out: GI50 DEL19 - T790M): 765 nM; IC50 (EGFR Exon19Del/T790M; [6]): > 5000 nM; IC50 (EGFR[T790M/C797S/L858R]; [7]): > 5000 nM; IC50 (EGFR wild type; [8]): > 5000 nM; IC50 (EGFR (C797S L858R); [9]): > 5000 nM; IC50 (EGFR (d746-750 C797S); [10]): 1430 nM; IC50 [2, 11]: 4040 nM
Cc1cc2cc(n1)-c1cnn(C)c1OCCN1CC3CCC(CC3)(C1)n1c(nc3ccc(N4CCOCC4)cc31)NC2=O [Example B2, 15,21-Dimethyl-5-(morpholin-4-yl)-23-oxa-2,9,11,16,20,21,26-heptaazaheptacyclo[26.2.2.1^{1,26}.1^{13,17}.0^{2,10}.0^{3,8}.0^{18,22}]tetratriaconta-3,5,7,9,13,15,17(34),18(22),19-nonaen-12-one] |  |  | 25 | 320 | 3160 | 102 | 47 | 18 | 4.7 | 153 | 10 | 14 | 125 | 5 | 13 | 36 | > 5000 | 28 | 560 | 20 | 
Cc1cc2cc(n1)-c1cnn(C)c1OCCN1CC3CCC(CC3)(C1)n1c(nc3ccccc31)NC2=O [Example B1, 15,21-Dimethyl-23-oxa-2,9,11,16,20,21,26-heptaazaheptacyclo[26.2.2.1^{1,26}.1^{13,17}.0^{2,10}.0^{3,8}.0^{18,22}]tetratriaconta-3,5,7,9,13,15,17(34),18(22),19-nonaen-12-one] |  |  | 15 | 1480 | 4390 | 410 | 150 | 95 | 20 | 736 | 51 | 98 | 751 | 22 | 6.5 | 23 | > 5000 | 112 | 2200 | 13 | 
CN(C)CCCN(C)c1ccc2nc3n(c2c1)C12CCC(CC1)CN(CCOc1c(cnn1C)-c1cc(cn(C)c1=O)C(=O)N3)C2 [Example A125] |  |  | 582 | 189 | 3740 | 35 | 29 | 7.9 | 43 | 34 | 21 | 64 | 7 | 30 | 18 | 359 | 4060 | 128 | 25 | 15 | 
Cc1cc2cc(n1)-c1cnn(C)c1OCCN1CC3CCC(CC3)(C1)n1c(nc3ccc(N(C)CCCN(C)C)cc31)NC2=O [Example B33] | 20 | 214 |  |  | 3740 | 75 |  | 10 | 3 | 69 | 7 | 13 | 62 | 4 |  |  |  |  |  |  | IC50 (EGFR Exon19Del; [5]): 28 nM; IC50 (EGFR Exon19Del/T790M; [6]): 9.9 nM; IC50 (EGFR[T790M/C797S/L858R]; [7]): 6.2 nM; IC50 (EGFR wild type; [8]): > 5000 nM; IC50 (EGFR (C797S L858R); [9]): 131 nM; IC50 (EGFR (d746-750 C797S); [10]): 22 nM; IC50 [2, 11]: 3 nM

From patent publication US20260365670A1, “EGFR INHIBITORS AND USES THEREOF” (DIZAL (JIANGSU) PHARMACEUTICAL CO., LTD., priority 2022, published 2026)
